Experimental data from paper PMC6478789, “A chemical toolbox for the study of bromodomains and epigenetic signaling” (Nature Communications, 2019).
Substitutions are numbered along the chain they refer to. Like-named read-outs stand apart in the source and are kept apart here.

What was measured:
EP300 [1] = target: EP300 (Homo sapiens, UniProt Q09472); experiment: Histone acetyltransferase (HAT) activity assay; format: biochemical; conditions: read-out: HATs Activity (%);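 also: selectivity screen of bromodomain probe compounds against histone acetyltransferases, with enzyme activity given in percent for compounds tested at 1 and 10 µM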
Target sequence in this assay (Q09472 whole entry, species assumed): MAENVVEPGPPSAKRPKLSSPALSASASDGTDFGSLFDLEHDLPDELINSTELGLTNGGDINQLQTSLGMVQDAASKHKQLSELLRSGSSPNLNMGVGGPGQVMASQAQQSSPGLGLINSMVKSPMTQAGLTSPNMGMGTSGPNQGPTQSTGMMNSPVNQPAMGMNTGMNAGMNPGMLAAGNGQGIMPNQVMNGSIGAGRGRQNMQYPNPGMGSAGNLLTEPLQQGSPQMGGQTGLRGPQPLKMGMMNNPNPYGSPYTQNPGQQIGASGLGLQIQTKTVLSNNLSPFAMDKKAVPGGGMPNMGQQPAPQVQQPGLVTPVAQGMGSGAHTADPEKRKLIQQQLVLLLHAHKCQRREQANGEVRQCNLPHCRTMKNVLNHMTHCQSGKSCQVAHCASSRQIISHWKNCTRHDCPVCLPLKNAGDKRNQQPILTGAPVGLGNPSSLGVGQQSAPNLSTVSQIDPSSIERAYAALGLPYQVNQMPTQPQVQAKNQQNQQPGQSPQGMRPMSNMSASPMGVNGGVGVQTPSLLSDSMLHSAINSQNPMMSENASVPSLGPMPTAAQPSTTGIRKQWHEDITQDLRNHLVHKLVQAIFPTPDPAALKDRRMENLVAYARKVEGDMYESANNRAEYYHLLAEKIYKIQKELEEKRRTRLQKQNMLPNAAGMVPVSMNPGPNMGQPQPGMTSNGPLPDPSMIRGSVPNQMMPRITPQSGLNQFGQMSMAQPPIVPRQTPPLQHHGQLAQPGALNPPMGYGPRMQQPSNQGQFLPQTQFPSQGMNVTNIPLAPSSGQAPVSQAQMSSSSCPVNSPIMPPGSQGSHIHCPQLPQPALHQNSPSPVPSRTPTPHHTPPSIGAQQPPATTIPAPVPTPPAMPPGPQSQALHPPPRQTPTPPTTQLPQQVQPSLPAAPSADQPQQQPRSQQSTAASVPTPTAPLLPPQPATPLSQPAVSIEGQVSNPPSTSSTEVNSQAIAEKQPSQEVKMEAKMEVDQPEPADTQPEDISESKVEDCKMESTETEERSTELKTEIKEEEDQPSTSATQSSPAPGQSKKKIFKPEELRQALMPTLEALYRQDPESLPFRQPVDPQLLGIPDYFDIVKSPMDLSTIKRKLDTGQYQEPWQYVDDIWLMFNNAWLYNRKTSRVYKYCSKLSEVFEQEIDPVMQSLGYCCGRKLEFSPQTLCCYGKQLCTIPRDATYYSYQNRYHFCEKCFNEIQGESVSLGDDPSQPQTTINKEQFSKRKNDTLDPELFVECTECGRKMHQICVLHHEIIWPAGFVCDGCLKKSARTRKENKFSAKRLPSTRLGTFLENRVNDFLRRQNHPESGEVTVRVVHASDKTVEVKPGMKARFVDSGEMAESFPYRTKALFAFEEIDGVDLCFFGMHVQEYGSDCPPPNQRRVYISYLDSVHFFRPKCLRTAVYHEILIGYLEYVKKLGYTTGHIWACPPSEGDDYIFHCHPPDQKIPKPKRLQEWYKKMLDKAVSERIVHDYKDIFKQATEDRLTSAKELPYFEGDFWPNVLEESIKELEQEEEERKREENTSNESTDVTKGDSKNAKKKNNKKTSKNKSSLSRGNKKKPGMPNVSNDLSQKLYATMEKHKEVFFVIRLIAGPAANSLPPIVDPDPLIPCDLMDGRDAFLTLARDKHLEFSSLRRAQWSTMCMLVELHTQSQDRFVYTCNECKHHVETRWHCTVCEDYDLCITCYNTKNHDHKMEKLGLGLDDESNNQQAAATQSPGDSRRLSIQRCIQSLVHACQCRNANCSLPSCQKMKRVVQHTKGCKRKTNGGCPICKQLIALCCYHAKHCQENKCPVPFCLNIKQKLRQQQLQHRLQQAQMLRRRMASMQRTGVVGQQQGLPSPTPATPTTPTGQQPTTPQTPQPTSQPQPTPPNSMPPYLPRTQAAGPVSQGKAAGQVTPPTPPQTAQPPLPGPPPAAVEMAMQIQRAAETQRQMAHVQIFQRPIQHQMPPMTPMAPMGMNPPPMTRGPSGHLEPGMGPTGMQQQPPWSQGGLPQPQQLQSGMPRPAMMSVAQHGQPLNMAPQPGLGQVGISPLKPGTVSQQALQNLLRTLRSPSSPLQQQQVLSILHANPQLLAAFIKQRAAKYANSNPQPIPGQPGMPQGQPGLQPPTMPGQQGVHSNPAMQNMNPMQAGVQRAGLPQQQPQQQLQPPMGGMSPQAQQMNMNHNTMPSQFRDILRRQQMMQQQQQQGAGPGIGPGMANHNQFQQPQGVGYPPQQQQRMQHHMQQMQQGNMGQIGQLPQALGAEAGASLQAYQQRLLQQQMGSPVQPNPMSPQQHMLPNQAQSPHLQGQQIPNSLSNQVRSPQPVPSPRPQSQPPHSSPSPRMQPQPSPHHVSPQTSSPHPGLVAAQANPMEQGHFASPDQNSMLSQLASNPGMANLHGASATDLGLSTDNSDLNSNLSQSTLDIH

HAT1 = target: T1, HAT1 (Homo sapiens, UniProt O14929); experiment: Histone acetyltransferase (HAT) activity assay; format: biochemical; conditions: read-out: HATs Activity (%);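 also: HAT selectivity screen of BRD probe compounds, enzyme activity in % measured with compound at 1 µM and 10 µM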
T1 sequence (O14929 1-419): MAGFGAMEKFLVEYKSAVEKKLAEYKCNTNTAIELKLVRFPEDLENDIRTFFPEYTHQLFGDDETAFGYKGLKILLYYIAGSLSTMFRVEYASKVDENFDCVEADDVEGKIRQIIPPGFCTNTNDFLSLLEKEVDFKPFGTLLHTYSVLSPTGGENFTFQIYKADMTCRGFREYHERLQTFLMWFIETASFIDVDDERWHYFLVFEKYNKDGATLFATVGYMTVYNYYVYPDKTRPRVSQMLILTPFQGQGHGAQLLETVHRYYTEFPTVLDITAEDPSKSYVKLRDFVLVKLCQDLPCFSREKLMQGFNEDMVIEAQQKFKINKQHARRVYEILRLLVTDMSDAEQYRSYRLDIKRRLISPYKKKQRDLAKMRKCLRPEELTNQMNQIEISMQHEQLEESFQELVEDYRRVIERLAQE

MYST1 = target: T2, MYST1 (Homo sapiens, UniProt Q9H7Z6); experiment: Histone acetyltransferase (HAT) activity assay; format: biochemical; conditions: read-out: HATs Activity (%);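 also: selectivity screen across a panel of histone acetyltransferases, with compounds tested at 1 and 10 µM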
T2 sequence (Q9H7Z6 1-458): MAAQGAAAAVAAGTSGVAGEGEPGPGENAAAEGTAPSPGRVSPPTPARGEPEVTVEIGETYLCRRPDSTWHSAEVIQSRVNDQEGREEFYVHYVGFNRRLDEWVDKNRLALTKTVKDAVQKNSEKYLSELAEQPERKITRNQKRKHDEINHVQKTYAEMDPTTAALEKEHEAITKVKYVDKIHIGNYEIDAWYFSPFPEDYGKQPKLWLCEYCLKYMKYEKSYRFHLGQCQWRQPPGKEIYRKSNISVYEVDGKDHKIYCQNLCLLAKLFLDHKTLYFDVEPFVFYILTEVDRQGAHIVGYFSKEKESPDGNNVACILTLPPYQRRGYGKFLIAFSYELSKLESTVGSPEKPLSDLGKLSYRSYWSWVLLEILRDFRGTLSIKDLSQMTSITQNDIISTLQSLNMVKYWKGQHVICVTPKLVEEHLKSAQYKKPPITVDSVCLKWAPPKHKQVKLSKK

MYST3 = MYST3 (Homo sapiens, UniProt Q92794); experiment: Histone acetyltransferase (HAT) activity assay; format: biochemical; conditions: read-out: HATs Activity (%);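 also: selectivity screen of bromodomain probe compounds across a panel of histone acetyltransferases, read out as enzyme activity in %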
Sequence of MYST3 (Q92794 whole entry, species assumed): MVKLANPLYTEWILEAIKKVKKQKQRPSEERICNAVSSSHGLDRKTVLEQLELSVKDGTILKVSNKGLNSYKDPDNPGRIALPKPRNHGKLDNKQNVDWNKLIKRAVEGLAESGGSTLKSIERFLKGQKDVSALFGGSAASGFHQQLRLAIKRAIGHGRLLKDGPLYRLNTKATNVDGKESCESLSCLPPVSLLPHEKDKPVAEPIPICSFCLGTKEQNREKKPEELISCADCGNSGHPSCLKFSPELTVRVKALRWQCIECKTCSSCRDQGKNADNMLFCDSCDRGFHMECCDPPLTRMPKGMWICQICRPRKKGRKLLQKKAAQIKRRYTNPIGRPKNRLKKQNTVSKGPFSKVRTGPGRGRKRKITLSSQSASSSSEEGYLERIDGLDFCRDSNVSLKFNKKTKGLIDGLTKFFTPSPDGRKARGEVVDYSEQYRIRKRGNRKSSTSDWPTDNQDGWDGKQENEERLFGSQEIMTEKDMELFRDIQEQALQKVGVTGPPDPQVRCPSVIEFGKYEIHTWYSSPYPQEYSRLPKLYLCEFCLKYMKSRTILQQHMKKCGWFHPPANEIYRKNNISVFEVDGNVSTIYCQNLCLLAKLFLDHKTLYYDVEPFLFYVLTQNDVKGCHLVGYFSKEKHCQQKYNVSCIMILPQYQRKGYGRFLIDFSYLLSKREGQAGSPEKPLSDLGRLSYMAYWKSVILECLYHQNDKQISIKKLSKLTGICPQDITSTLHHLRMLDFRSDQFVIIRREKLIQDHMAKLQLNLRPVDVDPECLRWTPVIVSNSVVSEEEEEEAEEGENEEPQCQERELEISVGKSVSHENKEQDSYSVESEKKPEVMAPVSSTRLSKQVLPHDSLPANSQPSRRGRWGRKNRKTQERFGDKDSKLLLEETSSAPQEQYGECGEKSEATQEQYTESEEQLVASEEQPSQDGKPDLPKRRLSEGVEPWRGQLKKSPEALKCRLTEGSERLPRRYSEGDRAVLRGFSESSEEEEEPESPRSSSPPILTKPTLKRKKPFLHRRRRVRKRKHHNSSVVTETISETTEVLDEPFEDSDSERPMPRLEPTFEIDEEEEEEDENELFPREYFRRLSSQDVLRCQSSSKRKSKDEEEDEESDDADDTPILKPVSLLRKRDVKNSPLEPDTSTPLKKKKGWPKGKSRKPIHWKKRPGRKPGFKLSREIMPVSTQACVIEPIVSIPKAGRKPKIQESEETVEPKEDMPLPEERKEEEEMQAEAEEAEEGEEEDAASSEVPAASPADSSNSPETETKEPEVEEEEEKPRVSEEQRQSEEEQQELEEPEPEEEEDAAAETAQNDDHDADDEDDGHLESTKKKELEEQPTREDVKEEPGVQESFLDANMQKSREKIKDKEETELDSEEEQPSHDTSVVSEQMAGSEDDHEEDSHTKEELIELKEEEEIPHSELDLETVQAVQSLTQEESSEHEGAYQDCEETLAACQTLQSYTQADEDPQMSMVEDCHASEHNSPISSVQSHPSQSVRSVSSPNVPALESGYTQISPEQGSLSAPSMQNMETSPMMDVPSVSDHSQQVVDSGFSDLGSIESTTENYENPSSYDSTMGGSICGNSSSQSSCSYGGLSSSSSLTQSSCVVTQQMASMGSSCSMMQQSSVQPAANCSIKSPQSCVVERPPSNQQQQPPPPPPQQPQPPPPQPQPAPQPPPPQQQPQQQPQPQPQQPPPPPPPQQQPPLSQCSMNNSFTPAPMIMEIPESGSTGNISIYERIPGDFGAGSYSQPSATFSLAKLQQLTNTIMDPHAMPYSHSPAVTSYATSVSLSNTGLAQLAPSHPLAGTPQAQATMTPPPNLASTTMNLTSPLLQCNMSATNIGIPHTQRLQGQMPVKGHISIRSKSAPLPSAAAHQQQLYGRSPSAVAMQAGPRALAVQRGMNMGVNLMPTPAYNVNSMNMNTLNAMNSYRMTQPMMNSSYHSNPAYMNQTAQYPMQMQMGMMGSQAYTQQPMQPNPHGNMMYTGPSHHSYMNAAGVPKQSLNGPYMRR

GCN5L2 = GCN5L2 (Homo sapiens, UniProt Q92830); experiment: Histone acetyltransferase (HAT) activity assay; format: biochemical; conditions: read-out: HATs Activity (%);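 also: selectivity screen of BRD probe compounds across a panel of histone acetyltransferases, HAT activity in % with compound at 1 or 10 µM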
ATAD2A = target: T3, ATAD2A (Homo sapiens, UniProt Q6PL18); experiment: BROMOscan ligand-binding assay
T3 sequence (Q6PL18 980-1092 limits assumed): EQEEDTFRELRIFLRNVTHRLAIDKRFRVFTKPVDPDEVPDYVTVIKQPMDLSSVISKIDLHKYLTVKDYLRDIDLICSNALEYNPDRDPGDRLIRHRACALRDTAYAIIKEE
Excerpt: (§1) BROMOscan is a binding assay based on the well-known KINOMEscan technology. This assay measures the binding of a DNA-tagged bromodomain to an immobilized BRD ligand. If an inhibitor is present, it will compete with the bromodomain binding to the immobilized ligand, resulting in reduction of a quantitative PCR (qPCR) signal in a dose-dependent manner.

ATAD2B = target: T4, ATAD2B (Homo sapiens, UniProt Q9ULI0); experiment: BROMOscan ligand-binding assay
T4 sequence (Q9ULI0 951-1066 limits assumed): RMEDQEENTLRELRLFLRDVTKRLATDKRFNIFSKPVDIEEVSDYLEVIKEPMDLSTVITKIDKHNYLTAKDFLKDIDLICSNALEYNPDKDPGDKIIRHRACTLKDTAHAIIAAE
Excerpt: as §1

BAZ2A = target: T5, BAZ2A (Homo sapiens, UniProt Q9UIF9); experiment: BROMOscan ligand-binding assay; conditions: BROMOscan Gene Symbol BAZ2A
T5 sequence (Q9UIF9 1793-1897 limits assumed): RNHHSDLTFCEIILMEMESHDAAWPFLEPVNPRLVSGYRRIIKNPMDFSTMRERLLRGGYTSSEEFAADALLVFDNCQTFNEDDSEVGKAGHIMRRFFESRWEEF
Excerpt: as §1

BAZ2B = target: T6, BAZ2B (Homo sapiens, UniProt Q9UIF8); experiment: BROMOscan ligand-binding assay
T6 sequence (Q9UIF8 2060-2164 limits assumed): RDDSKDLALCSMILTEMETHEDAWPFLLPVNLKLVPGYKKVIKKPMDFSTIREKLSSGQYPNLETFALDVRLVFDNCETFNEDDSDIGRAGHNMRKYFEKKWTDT
Excerpt: as §1

BRD1 = target: T7, BRD1 (Homo sapiens, UniProt O95696); experiment: BROMOscan ligand-binding assay; conditions: BROMOscan Gene Symbol BRD1
T7 sequence (O95696 562-666 limits assumed): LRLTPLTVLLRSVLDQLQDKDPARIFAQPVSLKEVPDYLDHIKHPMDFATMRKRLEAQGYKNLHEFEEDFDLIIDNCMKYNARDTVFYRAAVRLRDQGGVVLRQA
Excerpt: as §1

BRD2(1) = BRD2(1) (Homo sapiens, UniProt P25440); experiment: BROMOscan ligand-binding assay; conditions: BROMOscan Gene Symbol BRD2(1)
Excerpt: as §1

BRD2(2) = BRD2(2) (Homo sapiens, UniProt P25440); experiment: BROMOscan ligand-binding assay; conditions: BROMOscan Gene Symbol BRD2(2)
Sequence of BRD2(2) (P25440 344-453 limits assumed): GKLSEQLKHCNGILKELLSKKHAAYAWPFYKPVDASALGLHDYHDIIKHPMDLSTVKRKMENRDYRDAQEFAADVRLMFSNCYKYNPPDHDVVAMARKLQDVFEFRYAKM
Excerpt: as §1

BRD3(1) = BRD3(1) (Homo sapiens, UniProt Q15059); experiment: BROMOscan ligand-binding assay; conditions: BROMOscan Gene Symbol BRD3(1)
Sequence of BRD3(1) (Q15059 34-140 limits assumed): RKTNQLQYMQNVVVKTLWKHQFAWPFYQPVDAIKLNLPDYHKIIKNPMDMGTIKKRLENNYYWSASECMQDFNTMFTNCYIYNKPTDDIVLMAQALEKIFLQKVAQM
Excerpt: as §1

BRD3(2) = BRD3(2) (Homo sapiens, UniProt Q15059); experiment: BROMOscan ligand-binding assay; conditions: BROMOscan Gene Symbol BRD3(2)
Sequence of BRD3(2) (Q15059 306-415 limits assumed): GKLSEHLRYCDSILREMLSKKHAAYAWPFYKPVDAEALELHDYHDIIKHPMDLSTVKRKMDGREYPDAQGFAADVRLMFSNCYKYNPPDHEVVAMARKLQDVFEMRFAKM
Excerpt: as §1

BRD9 = target: T8, BRD9 (Homo sapiens, UniProt Q9H8M2); experiment: BROMOscan ligand-binding assay; conditions: BROMOscan Gene Symbol BRD9
T8 sequence (Q9H8M2 136-240 limits assumed): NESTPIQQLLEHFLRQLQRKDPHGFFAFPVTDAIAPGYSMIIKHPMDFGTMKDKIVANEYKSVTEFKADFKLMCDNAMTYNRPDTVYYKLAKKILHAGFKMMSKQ
Excerpt: as §1

BRDT(1) = BRDT(1) (Homo sapiens, UniProt Q58F21); experiment: BROMOscan ligand-binding assay; conditions: BROMOscan Gene Symbol BRDT(1)
Excerpt: as §1

BRDT(2) = BRDT(2) (Homo sapiens, UniProt Q58F21); experiment: BROMOscan ligand-binding assay; conditions: BROMOscan Gene Symbol BRDT(2)
Excerpt: as §1

BRPF1 = target: T9, BRPF1 (Homo sapiens, UniProt P55201); experiment: BROMOscan ligand-binding assay; conditions: BROMOscan Gene Symbol BRPF1
T9 sequence (P55201 628-732 limits assumed): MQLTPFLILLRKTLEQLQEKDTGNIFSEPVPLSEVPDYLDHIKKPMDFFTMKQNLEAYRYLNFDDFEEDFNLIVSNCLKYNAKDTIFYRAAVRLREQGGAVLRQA
Excerpt: as §1

BRPF3 = target: T10, BRPF3 (Homo sapiens, UniProt Q9ULD4); experiment: BROMOscan ligand-binding assay
T10 sequence (Q9ULD4 589-693 limits assumed): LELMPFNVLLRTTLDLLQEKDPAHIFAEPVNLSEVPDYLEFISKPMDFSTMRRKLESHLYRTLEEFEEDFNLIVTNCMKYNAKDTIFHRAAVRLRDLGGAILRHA
Excerpt: as §1

EP300 [2] = target: T11, EP300 (Homo sapiens, UniProt Q09472); experiment: BROMOscan ligand-binding assay; conditions: BROMOscan Gene Symbol EP300
T11 sequence (Q09472 1049-1156 limits assumed): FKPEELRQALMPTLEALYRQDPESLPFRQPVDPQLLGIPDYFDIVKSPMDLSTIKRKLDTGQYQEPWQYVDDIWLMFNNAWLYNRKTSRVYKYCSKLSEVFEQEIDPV
Excerpt: as §1

FALZ = FALZ (Homo sapiens, UniProt Q12830); experiment: BROMOscan ligand-binding assay
Excerpt: as §1

PBRM1(2) = PBRM1(2) (Homo sapiens, UniProt Q86U86); experiment: BROMOscan ligand-binding assay; conditions: BROMOscan Gene Symbol PBRM1(2)
Sequence of PBRM1(2) (Q86U86 177-287 limits assumed): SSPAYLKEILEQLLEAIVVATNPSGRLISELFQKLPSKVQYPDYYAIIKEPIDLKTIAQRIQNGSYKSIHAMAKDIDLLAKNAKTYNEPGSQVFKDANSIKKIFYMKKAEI
Excerpt: as §1

TAF1(2) = target: T12, TAF1(2) (Homo sapiens, UniProt P21675); experiment: BROMOscan ligand-binding assay; conditions: BROMOscan Gene Symbol TAF1(2)
T12 sequence (P21675 1519-1628 limits assumed): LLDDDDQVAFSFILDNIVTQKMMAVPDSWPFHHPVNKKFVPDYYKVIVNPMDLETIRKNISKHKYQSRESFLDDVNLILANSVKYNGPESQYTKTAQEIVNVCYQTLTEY
Excerpt: as §1

TAF1L(2) = target: T13, TAF1L(2) (Homo sapiens, UniProt Q8IZX4); experiment: BROMOscan ligand-binding assay; conditions: BROMOscan Gene Symbol TAF1L(2)
T13 sequence (Q8IZX4 1517-1626 limits assumed): T12 sequence (P21675 1519-1628 limits assumed) with V46M, M51V, V102I, L107I
Excerpt: as §1

TRIM24(PHD,BRD) = target: T14, TRIM24(PHD,BRD) (Homo sapiens, UniProt O15164); experiment: BROMOscan ligand-binding assay; conditions: BROMOscan Gene Symbol TRIM24(PHD,Bromo.)
T14 sequence (O15164 824-1006 limits assumed): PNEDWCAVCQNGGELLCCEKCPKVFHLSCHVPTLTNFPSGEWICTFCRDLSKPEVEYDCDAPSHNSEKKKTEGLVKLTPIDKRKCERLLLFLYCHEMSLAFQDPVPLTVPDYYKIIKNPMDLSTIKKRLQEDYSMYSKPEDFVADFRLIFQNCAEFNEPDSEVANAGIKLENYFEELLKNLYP
Excerpt: as §1

TRIM33(PHD,BRD) = target: T15, TRIM33(PHD,BRD) (Homo sapiens, UniProt Q9UPN9); experiment: BROMOscan ligand-binding assay
T15 sequence (Q9UPN9 882-1087 limits assumed): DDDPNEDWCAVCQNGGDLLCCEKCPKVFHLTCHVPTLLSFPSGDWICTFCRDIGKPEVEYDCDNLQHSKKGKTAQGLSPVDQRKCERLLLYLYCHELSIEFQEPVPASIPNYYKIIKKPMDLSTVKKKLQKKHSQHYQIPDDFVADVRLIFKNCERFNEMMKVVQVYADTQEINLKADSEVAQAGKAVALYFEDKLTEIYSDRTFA
Excerpt: as §1

WDR9(2) = WDR9(2) (Homo sapiens, UniProt Q9NSI6); experiment: BROMOscan ligand-binding assay; conditions: BROMOscan Gene Symbol WDR9(2)
Sequence of WDR9(2) (Q9NSI6 1313-1418 limits assumed): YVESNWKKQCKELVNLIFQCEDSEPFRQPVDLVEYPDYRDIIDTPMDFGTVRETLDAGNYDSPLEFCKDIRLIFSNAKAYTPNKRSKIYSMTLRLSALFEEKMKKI
Excerpt: as §1

[3] = read-out: KD (BROMOscan), sheet prints no unit (nM)

COc1cc(-c2cn(C)c(=O)c3cnccc23)c(OC)cc1CN(C)C [BI-9564]
activity at 1 µM (EP300 [1]): 99% | activity at 10 µM (EP300 [1]): 94% | activity at 1 µM (HAT1): 99% | activity at 10 µM (HAT1): 96% | activity at 1 µM (MYST1): 106% | activity at 10 µM (MYST1): 101% | activity at 1 µM (MYST3): 99% | activity at 10 µM (MYST3): 100% | activity at 1 µM (GCN5L2): 102% | activity at 10 µM (GCN5L2): 100%

COc1ccc(CCc2nc3cc(-c4c(C)noc4C)ccc3n2CCN2CCOCC2)cc1 [CBP30-383]
Kd (ATAD2A; BROMOscan Gene Symbol ATAD2A): > 150000 nM | Kd (ATAD2A; [3]): > 30000 nM | Kd (ATAD2B; BROMOscan Gene Symbol ATAD2B): > 50000 nM | Kd (ATAD2B; [3]): > 30000 nM | Kd (BAZ2A): 75 µM | Kd (BAZ2B; BROMOscan Gene Symbol BAZ2B): > 50000 nM | Kd (BAZ2B; [3]): > 30000 nM | Kd (BRD1): 47 µM | Kd (BRD2(1)): 1500 nM | Kd (BRD2(2)): 3.6 µM | Kd (BRD3(1)): 1400 nM | Kd (BRD3(2)): 4.6 µM | Kd (BRD9): 10 µM | Kd (BRDT(1)): 3.6 µM | Kd (BRDT(2)): 18 µM | Kd (BRPF1): 11 µM | Kd (BRPF3; BROMOscan Gene Symbol BRPF3): > 50000 nM | Kd (BRPF3; [3]): > 30000 nM | Kd (EP300 [2]): 44 nM | Kd (FALZ; BROMOscan Gene Symbol FALZ): > 50000 nM | Kd (FALZ; [3]): > 30000 nM | Kd (PBRM1(2)): 44 µM | Kd (TAF1(2)): 1600 nM | Kd (TAF1L(2)): 14 µM | Kd (TRIM24(PHD,BRD)): 26 µM | Kd (TRIM33(PHD,BRD); BROMOscan Gene Symbol TRIM33(PHD,Bromo.)): > 50000 nM | Kd (TRIM33(PHD,BRD); [3]): > 30000 nM | Kd (WDR9(2)): 41 µM

CC(=O)c1cc(-c2cc(C(=O)NC3CC3)ccc2C)c2ncccn12 [TP-472]
activity at 1 µM (EP300 [1]): 95% | activity at 10 µM (EP300 [1]): 96% | activity at 1 µM (HAT1): 98% | activity at 10 µM (HAT1): 97% | activity at 1 µM (MYST1): 100% | activity at 10 µM (MYST1): 103% | activity at 1 µM (MYST3): 99% | activity at 10 µM (MYST3): 98% | activity at 1 µM (GCN5L2): 94% | activity at 10 µM (GCN5L2): 92%
